# Patent US9364479B2, “Use of a receptor-type kinase modulator for treating polycystic kidney disease” (SYMPHONY EVOLUTION, INC., priority 2010, dated 2016)
# Read-outs that look alike come from different tables or passages of the source.
# Key:
# [1] = biological target: T1, EphB4 (Homo sapiens, UniProt P54760); assay: Mechanism of action study / Ki determination; type: biochemical
# T1 construct: residues E605-E890 of human EphB4 containing a six histidine NH2-terminal tag; His6 (N); made in house; host or cells: baculovirus expression system
# T1 sequence (P54760 605-890): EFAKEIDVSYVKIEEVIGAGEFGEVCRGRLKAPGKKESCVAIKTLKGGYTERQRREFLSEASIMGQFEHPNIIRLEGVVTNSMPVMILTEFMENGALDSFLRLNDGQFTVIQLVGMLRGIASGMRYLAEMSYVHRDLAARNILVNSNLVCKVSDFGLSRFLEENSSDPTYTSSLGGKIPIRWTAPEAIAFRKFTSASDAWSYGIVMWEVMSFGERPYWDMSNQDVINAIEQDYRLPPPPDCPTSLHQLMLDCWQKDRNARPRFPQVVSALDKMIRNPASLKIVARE
# Experimental: Enzymatic activity was measured by standard methods after dilution of the enzyme-inhibitor complex. Activity was compared to a DMSO control treated under identical conditions.
# [2] = biological target: T2, Muscarinic, M1 (Human Recombinant) (Homo sapiens, UniProt P11229); assay: NovaScreen assay; type: binding
# T2 construct: NovaScreen
# T2 sequence (P11229 whole entry): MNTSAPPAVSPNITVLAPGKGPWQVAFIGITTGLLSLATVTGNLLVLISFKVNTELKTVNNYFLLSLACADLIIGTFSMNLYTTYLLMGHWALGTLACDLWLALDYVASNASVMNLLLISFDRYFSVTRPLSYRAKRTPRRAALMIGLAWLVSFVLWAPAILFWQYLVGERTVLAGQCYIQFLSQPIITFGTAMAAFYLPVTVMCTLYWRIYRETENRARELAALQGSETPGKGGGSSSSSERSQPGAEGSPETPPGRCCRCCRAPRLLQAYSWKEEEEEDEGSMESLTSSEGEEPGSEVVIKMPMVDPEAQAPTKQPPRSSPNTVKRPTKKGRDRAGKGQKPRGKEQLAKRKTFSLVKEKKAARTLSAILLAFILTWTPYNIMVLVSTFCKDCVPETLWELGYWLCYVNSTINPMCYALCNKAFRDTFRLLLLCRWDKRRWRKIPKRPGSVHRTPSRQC
# [3] = biological target: ErbB2 (Homo sapiens, UniProt P04626); assay: Mechanism of action study / Ki determination; type: biochemical; design: residues Q679-V1255 of human ErbB2, Proqinase; purchased Proqinase
# Chain of ErbB2 (P04626 679-1255): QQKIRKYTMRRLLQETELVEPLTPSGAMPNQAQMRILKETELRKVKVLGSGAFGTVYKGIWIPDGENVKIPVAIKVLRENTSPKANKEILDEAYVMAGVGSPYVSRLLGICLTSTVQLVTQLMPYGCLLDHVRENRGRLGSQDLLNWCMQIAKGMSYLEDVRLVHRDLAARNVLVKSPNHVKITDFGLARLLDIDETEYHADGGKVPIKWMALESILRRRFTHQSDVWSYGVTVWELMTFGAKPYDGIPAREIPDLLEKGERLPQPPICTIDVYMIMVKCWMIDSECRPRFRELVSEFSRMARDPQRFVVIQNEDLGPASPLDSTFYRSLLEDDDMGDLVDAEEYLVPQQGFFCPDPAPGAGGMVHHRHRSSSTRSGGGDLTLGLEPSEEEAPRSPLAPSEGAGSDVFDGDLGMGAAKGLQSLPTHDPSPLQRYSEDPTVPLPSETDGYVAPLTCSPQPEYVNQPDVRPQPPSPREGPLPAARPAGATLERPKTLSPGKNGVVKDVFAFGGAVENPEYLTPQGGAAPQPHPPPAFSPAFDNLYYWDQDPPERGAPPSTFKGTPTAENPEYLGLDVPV
# Experimental: Enzymatic activity was measured by standard methods after dilution of the enzyme-inhibitor complex.
# [4] = system: Potassium Channel, Ca2+ Act., VI; assay: NovaScreen assay; type: binding
# [5] = biological target: T3, PKA (Bos taurus, UniProt P00517); assay: Chemiluminescent kinase assay; type: biochemical, bovine
# T3 construct: Bovine (Heart),; purchased Upstate Biotechnology; host or cells: bovine heart
# Experimental: (§1) Further screening was performed using the biochemical assay methods of Example 2. Additional description of the components and concentrations are summarized in Table 8, Table 9, and Table 10, below.
# [6] = biological target: T4, Thromboxane A2 (Human) (Homo sapiens, UniProt P21731); assay: NovaScreen assay; type: binding; conditions: read-out: Inhibition, 10 μM XL-647
# T4 construct: NovaScreen
# T4 sequence (P21731 whole entry): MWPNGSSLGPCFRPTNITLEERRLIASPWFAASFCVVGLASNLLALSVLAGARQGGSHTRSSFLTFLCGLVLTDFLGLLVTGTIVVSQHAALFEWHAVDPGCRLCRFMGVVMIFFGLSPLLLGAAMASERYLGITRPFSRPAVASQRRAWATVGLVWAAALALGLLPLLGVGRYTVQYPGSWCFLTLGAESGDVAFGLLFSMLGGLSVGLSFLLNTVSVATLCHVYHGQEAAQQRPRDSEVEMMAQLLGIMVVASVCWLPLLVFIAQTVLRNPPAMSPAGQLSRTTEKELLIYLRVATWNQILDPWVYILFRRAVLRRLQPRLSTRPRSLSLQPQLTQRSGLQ
# [7] = biological target: CYP2D6 (Homo sapiens, UniProt P10635)
# Chain of CYP2D6 (P10635 whole entry): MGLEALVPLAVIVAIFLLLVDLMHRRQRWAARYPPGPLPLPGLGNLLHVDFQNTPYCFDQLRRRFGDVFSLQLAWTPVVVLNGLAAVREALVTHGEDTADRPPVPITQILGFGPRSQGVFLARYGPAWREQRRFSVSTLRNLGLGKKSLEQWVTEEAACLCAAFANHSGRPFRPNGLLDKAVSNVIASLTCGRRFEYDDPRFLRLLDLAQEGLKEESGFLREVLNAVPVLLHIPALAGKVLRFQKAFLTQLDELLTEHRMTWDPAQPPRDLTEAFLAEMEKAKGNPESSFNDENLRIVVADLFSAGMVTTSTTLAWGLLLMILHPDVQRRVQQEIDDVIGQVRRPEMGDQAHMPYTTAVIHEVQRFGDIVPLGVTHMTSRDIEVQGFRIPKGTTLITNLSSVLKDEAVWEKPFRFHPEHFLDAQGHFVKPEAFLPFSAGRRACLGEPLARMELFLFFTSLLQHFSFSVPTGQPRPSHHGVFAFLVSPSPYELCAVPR
# [8] = system: Sigma, Non-selective; assay: NovaScreen assay; type: binding
# [9] = biological target: T5, Angiotensin II, AT2 (Homo sapiens, UniProt P50052); assay: NovaScreen assay; type: binding; conditions: read-out: Inhibition, 10 μM XL-647
# T5 construct: NovaScreen
# T5 sequence (P50052 whole entry): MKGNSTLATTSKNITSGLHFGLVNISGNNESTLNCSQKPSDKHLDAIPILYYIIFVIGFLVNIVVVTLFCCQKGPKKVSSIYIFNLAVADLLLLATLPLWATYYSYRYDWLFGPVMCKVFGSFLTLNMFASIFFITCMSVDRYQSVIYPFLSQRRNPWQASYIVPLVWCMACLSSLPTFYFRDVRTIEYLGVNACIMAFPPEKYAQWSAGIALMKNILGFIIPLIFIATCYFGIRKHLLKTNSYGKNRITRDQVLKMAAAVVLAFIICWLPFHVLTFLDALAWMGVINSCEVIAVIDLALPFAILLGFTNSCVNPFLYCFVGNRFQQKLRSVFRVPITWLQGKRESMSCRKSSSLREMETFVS
# [10] = biological target: KDR (Homo sapiens, UniProt P35968); assay: Cellular autophosphorylation assay; type: cell-based
# [11] = biological target: T6, Chk1 (Homo sapiens, UniProt O14757); assay: Radiometric kinase assay; type: biochemical
# T6 construct: GST (N); purchased Upstate Biotechnology
# T6 sequence (O14757 whole entry): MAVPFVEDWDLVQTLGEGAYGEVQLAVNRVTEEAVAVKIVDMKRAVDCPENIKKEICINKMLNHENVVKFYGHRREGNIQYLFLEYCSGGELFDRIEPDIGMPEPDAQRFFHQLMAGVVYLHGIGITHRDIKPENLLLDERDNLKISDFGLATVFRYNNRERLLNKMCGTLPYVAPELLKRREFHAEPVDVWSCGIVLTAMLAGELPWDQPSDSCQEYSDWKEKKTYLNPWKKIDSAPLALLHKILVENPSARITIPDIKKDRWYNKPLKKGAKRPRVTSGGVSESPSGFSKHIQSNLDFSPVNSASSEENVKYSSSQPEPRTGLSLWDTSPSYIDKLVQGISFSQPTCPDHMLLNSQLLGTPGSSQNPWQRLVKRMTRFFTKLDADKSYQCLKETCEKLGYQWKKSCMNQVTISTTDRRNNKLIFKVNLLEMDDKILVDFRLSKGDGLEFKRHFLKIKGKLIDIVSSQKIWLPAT
# Experimental: as §1
# [12] = biological target: T7, Plk1 (Homo sapiens, UniProt P53350); assay: Radiometric kinase assay; type: biochemical
# T7 construct: His6
# Experimental: as §1
# [13] = biological target: T8, Chk2 (Homo sapiens, UniProt O96017); assay: Radiometric kinase assay; type: biochemical
# T8 construct: Human, 5-543, N-; GST (N); His (C); purchased Upstate Biotechnology
# T8 sequence (O96017 5-543): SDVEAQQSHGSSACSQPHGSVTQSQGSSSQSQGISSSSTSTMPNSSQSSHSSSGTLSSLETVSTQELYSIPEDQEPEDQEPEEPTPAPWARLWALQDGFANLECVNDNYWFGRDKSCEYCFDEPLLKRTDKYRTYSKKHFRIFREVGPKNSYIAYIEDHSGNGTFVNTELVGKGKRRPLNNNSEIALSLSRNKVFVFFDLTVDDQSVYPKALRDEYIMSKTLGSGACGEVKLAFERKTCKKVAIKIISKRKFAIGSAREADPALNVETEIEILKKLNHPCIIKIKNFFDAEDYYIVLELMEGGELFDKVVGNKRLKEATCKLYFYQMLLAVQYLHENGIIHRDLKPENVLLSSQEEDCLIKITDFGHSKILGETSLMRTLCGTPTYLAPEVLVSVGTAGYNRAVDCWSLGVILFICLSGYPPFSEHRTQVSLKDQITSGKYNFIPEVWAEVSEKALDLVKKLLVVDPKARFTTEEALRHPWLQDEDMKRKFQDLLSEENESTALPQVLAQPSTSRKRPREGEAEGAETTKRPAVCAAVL
# Experimental: as §1
# [14] = biological target: T9, PKC-ε (Homo sapiens, UniProt Q02156); assay: Radiometric kinase assay; type: biochemical
# T9 construct: purchased PanVera
# Experimental: as §1
# [15] = human
# [16] = biological target: c-Kit (Homo sapiens, UniProt P10721); assay: c-Kit autophosphorylation ELISA, transfected HeLa cells; type: cell-based; design: expressed in transfected cells; host or cells: HeLa; conditions: read-out: Cellular IC50, autophosphorylation
# Experimental: The c-Kit autophosphorylation ELISA utilized HeLa (ATCC) cells. Cells were seeded at 6×10^5 cells/well onto 100 mm dish. 24 hours later, HeLa cells were transfected with a mammalian expression plasmid containing a CMV promoter operably linked to the open reading frame of human c-kit with a Flag epitope tag on the C-terminus 24 hours later, c-Kit transfected HeLa cells were trypsinized and re-seeded at 6×10^3 cells/well into 96-well microtiter plates (Costar 3904), in DMEM (Cellgro) containing 10% FBS (Heat-Inactivated, Hyclone), 1% penicillin-streptomycin (Cellgro), and 1% NEAA solution (Cellgro). The cells were then incubated at 37° C., 5% CO2 for 24 hr. […] Negative control wells were left unstimulated. Following stimulation, media was removed, the cell monolayer washed with cold PBS and immediately lysed with cold lysis buffer. Lysates were incubated in 96-well streptavidin-coated plates (Pierce) coated with biotin-conjugated, goat anti-human c-Kit (1 μg/ml, R&D Systems). Plates were washed 3× with TBST and incubated either with HRP-conjugated anti-phosphotyrosine (1:10,000, Zymed Laboratories, Inc) or HRP-conjugated anti-Flag(M2) (1:2,000, Sigma). Plates were washed again as described above followed by the addition of a luminol-based substrate solution and read with a Victor spectrophotometer (Wallac).
# [17] = human, in vivo
# [18] = biological target: T10, Oxytocin (Homo sapiens, UniProt P30559); assay: NovaScreen assay; type: binding; conditions: read-out: Inhibition, 10 μM XL-647
# T10 construct: NovaScreen
# T10 sequence (P30559 whole entry): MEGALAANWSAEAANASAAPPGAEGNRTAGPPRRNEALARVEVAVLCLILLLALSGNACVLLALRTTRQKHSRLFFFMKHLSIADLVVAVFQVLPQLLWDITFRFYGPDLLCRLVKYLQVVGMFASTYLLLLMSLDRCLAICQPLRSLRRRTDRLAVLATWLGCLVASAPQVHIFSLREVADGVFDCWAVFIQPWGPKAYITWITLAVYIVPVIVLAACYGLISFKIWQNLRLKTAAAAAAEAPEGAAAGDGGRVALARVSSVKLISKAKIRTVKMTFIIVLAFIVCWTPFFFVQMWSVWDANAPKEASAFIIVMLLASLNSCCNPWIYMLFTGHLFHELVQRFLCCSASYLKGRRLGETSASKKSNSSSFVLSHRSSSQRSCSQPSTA
# [19] = system: Opiate, Non-selective; assay: NovaScreen assay; type: binding
# [20] = biological target: T11, Cholecystokinin, CCK1 (CCKA) (Homo sapiens, UniProt P32238); assay: NovaScreen assay; type: binding; conditions: read-out: Inhibition, 10 μM XL-647
# T11 construct: NovaScreen
# T11 sequence (P32238 whole entry): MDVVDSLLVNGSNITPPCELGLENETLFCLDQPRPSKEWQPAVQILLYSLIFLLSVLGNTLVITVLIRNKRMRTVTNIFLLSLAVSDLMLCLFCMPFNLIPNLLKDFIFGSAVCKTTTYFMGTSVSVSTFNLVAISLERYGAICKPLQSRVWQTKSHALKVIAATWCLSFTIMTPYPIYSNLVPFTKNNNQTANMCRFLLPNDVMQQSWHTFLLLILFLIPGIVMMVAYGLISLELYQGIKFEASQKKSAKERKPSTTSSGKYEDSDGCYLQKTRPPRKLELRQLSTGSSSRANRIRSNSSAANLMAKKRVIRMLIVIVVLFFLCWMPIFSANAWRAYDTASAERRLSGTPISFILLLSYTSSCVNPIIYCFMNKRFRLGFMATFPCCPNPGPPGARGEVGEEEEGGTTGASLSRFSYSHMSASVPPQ
# [21] = system: BALB/C mice; conditions: mouse, in vivo
# [22] = biological target: T12, Neurokinin, NK2 (NKA) (Human Recombinant) (Homo sapiens, UniProt P21452); assay: NovaScreen assay; type: binding; conditions: read-out: Inhibition, 10 μM XL-647
# T12 construct: NovaScreen
# T12 sequence (P21452 whole entry): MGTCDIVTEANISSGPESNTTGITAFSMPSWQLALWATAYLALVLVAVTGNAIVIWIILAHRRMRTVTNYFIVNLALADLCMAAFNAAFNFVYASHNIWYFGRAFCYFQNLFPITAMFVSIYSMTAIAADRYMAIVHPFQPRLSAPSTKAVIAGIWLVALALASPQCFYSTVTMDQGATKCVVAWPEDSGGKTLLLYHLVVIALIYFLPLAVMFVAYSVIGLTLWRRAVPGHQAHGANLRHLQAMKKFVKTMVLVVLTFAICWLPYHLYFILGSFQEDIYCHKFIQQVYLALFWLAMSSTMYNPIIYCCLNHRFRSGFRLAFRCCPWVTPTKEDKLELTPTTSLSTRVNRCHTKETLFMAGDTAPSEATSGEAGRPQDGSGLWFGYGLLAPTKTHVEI
# [23] = biological target: T13, Platelet Activating Factor, PAF (Homo sapiens, UniProt P25105); assay: NovaScreen assay; type: binding; conditions: read-out: Inhibition, 10 μM XL-647
# T13 construct: NovaScreen
# T13 sequence (P25105 whole entry): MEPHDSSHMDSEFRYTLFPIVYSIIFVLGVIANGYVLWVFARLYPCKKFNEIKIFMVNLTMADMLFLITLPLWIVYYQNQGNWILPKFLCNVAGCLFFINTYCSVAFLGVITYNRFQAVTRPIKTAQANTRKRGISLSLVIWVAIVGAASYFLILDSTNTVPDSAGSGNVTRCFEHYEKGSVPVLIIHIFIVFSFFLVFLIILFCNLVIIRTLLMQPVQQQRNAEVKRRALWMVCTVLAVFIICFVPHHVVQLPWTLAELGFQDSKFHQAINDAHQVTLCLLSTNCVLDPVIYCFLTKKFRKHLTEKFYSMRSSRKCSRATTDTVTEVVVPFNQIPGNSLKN
# [24] = system: Glutamic Acid Decarboxylase; assay: NovaScreen assay; type: biochemical
smiles,measurement,setting,value
"COc1cc2c(Nc3ccc(Cl)c(Cl)c3F)ncnc2cc1OC[C@@H]1C[C@@H]2CN(C)C[C@@H]2C1 [XL-647, N-(3,4-dichloro-2-fluorophenyl)-7-({[(3aR,5r,6aS)-2-methyloctahydrocyclopenta[c]pyrrol-5-yl]methyl}oxy)-6-(methyloxy)quinazolin-4-amine]",ATP-Competitive,[1],Yes
same,Ki,[1],1 nM
same,Reversible,[1],Yes
same,IC50,[2],2330 nM
same,inhibition at 10 µM,"[2]; read-out: Inhibition, 10 μM XL-647",98.1%
same,ATP-Competitive,[3],Yes
same,Ki,[3],3 nM
same,Reversible,[3],Yes
same,"Inhibition, 10 μM XL-647",[4],17.02%
same,IC50,[5],> 10000 nM
same,inhibition at 10 µM,[6],1.51%
same,"CYP2D6 inhibition, in words",[7],inhibitor
same,"Inhibition, 10 μM XL-647",[8],50.90%
same,inhibition at 10 µM,[9],16.6%
same,IC50,[10],137 nM
same,IC50,[11],> 10000 nM
same,IC50,[12],> 1000 nM
same,IC50,[13],> 10000 nM
same,IC50,[14],> 10000 nM
same,protein bound,[15],93-99%
same,IC50,[16],90 nM
same,"dose proportionality of AUC and Cmax, in words",[17],generally increased in proportion with dose
same,inhibition at 10 µM,[18],-2.59%
same,"Inhibition, 10 μM XL-647",[19],39.73%
same,inhibition at 10 µM,[20],47.5%
same,BUN,[21]; 7.5 mg/kg/day,19.00 mg/dL
same,CT-CI,[21]; 7.5 mg/kg/day,0
same,Creatinine,[21]; 7.5 mg/kg/day,0.24 mg/dL
same,MUCA,[21]; 7.5 mg/kg/day,1029 mOsmol
same,BUN,[21]; 15 mg/kg/day,19.29 mg/dL
same,CT-CI,[21]; 15 mg/kg/day,0
same,Creatinine,[21]; 15 mg/kg/day,0.29 mg/dL
same,MUCA,[21]; 15 mg/kg/day,1029 mOsmol
same,inhibition at 10 µM,[22],34.2%
same,inhibition at 10 µM,[23],11.7%
same,"Inhibition, 10 μM XL-647",[24],−8.46%
